From patent US20210100909A1, “Polymeric Methylprednisolone Conjugates and Uses Thereof” (United States Government As Represented By The Department …, priority 2019, published 2021)

Experiments:
[1] = test system: TRAP, calcitonin receptor (CTR) and Integrin β3; assay: Osteoclastic marker mRNA in bone (TRAP, CTR, Integrin β3); assay type: in vivo, rat; conditions: whole bone RNA
Experimental: (§1) Total bone RNA was extracted as previously described with some modifications. Briefly, long bones were dissected free of soft tissues, and bone marrow were flushed away with PBS using a 27 G ½ needle-syringe. The bone samples (˜1 g) were longitudinally cut into small piece and then digested 3 times with 2 mg/ml collagenase type I (Gibco, >150 Units; 20 ml), one time with 5 mM EDTA (Sigma-Aldrich, 10 ml)), and one more with the collagenase and EDTA, each for 25 min on a Shaker with rotation at 150 rpm at 370 C. Following the digestions, the bone samples were crushed using a mortar and pestle in liquid nitrogen. RNA was extracted from the lysate using the TRizol reagent (Sigma Aldrich) according to the manufacturer's instructions.
(§2) Real time PCR was used for the determination of mRNA levels as described previously. One μg of total RNA was used to synthesize the first strand cDNA by the High Capacity cDNA Reverse Transcription Kit (Applied Biosystems). qPCR was performed with an Applied Biosystems (ABI) Via 7 thermal cycler using ABI Taqman 2×PCR mix and ABI Assay on Demand qPCR primers. Changes in expression were calculated using the 2-ΔΔCt method using 18S RNA as the internal control.

SOST = SOST mRNA in bone; assay type: in vivo, rat; conditions: p<0.05
Experimental: as §1, §2

FOXO1 = FOXO1 protein level in muscle (western blot); assay type: in vivo, rat
Experimental: (§3) Total RNAs from gastrocnemius, soleus and bone were extracted using the TRI reagent (Sigma-Aldrich). For western blot analysis, gastronemius and soleus muscle tissue were lysed in RIPA buffer. Protein concentrations were determined using the BCA method. 30 μg protein lysate was used for the SDS-PAGE protein separation, and blots were probed with FOXO1 antibody.

G6PC = G6PC gene expression in gastrocnemius muscle (qPCR); assay type: in vivo, rat; conditions: SCI animals
Experimental: as §3, §2

GLUT4 = GLUT4 gene expression in gastrocnemius muscle (qPCR); assay type: in vivo, rat; conditions: SCI animals
Experimental: as §3, §2

nitrotyrosine = assay: Nitrotyrosine immunostaining of spinal cord (oxidative stress); assay type: in vivo, rat; conditions: 7 days post injury
Experimental: (§4) Injectable methylprednisolone (MP) solution (62.5 mg/ml) was obtained from Pfizer. MP was conjugated to the chain terminus of methoxy HPMA, an amphiphilic macromolecular prodrug. In parallel, IRDye® 800CW-MP-HPMA (MP-Nano-IRDye) and Alexa Fluor 488-labeled HPMA-MP (MP-Nano-Alexa 488) were also synthesized for optical imaging to visualize the bio-distribution of MP-Nano. Immediately after spinal cord transection, animals were administered an intravenous injection of freshly prepared MP-Nano (60 mg/kg, equivalent to 20% free MP dose at 30 mg/kg), MP (30 mg/kg) or vehicle (propylene glycol) by tail vein, followed by implantation of an Alzet pump (Durect Co, Cupertino, Calif., USA) which provided a 24-h infusion of MP at 5.4 mg/kg/hr (SCI-MP), or vehicle (propylene glycol) (SCI-veh and SCI-Nano-MP) into a subcutaneous pocket. These dosing of MP corresponds on an mg per kg basis to that prescribed by the Bracken protocol. Sham-transected animals underwent laminectomy and implantation of the same Alzet pumps, with vehicle (propylene glycol) infusion instead, as baseline controls.
(§5) At 2 and 7 days after injury, animals (sham, SCI-veh, SCI-MP, SCI-Nano-MP, n=5 animals for each condition and time point) were perfused transcardially with 4% paraformaldehyde. […] Fluorescence intensity quantifications were performed in the ImageJ software (NIH).

[2] = Skeletal muscle mass after acute SCI; assay type: in vivo, rat
Experimental: At the end of animal study, animals were euthanized by inhalation of isofluorane prior to harvesting of tissue for study. Gastrocnemius, soleus, plantaris, EDL, bicep and tricep muscle on both sides were dissected, weighed and stored at −80° C. for further analysis. The leg was removed using sterile technique; careful dissection was performed to free the head of the femur from the pelvis. To preserve bone for micro-CT study, the left leg was removed and placed into tubes containing 4% PFA overnight, after which the PFA will be replaced with 70% ethanol for storage. The right femur and tibia (n=4-5 per group) were placed in ice-cold Minimum Essential Alpha Medium (α-MEM), and then immediately processed for extraction of total RNA from bone.

TNF-α [3] = assay: TNF-α mRNA in gastrocnemius and soleus muscle; assay type: in vivo, rat; conditions: 2 days post injury
Experimental: as §3, §2

RANKL = RANKL mRNA and OPG/RANKL ratio in bone; assay type: in vivo, rat; conditions: whole bone RNA
Experimental: as §1, §2

[4] = Fasting blood glucose level; assay type: in vivo, rat; conditions: 2 days post injury
From the text: Rats were fasted overnight in clean cages with free access to water in new clean bottles. The next morning prior to sacrifice, fasted blood glucose measurement was taken by applying tail blood to a Contour Blood Glucose Monitoring System (Bayer).

TNF-α [5] = assay: TNF-α immunostaining of spinal cord (inflammation); assay type: in vivo, rat; conditions: 7 days post injury
Experimental: as §4, §5

[6] = Bone architecture by high-resolution μCT; assay type: in vivo, rat
Experimental: (§6) Areal bone mineral density (BMD) measurements were performed by using a small animal dual-energy X-ray absorptiometer (DXA) (Lunar Piximus, Fitchburg, Wis., USA) as previously described. Volumetric BMD and bone architecture of the distal femur were assessed by a Scanco μCT scanner (μCT-40; Scanco Medical AG, Bassersdorf, Switzerland) at […] isotropic voxel size as previously described.

gastrocnemius muscle = assay: Muscle histology (H&E) of gastrocnemius, fiber cross-sectional area; assay type: in vivo, rat
Experimental: Pieces of gastrocnemius muscle were frozen in isopentane pre-cooled on dry ice and stored at −80° C. Transverse sections (10 μm) were then cut on Leika CM3050S cryostat and mounted directly onto cooled glass slides followed by hematoxylin & eosin (H&E) staining. Stained sections were viewed in the EVOS FL Auto system (Life Technologies). Fiber size measurement and distribution was performed using the ImageJ software (NIH).

[7] = intravenous; cited from earlier work
[8] = test system: MAFbx/atrogin-1 and MuRF1; assay: MAFbx and MuRF1 mRNA in muscle; assay type: in vivo, rat; conditions: 2 days post injury
Experimental: as §3, §2

[9] = Areal bone mineral density by DXA; assay type: in vivo, rat
Experimental: as §6

[10] = Body weight and food intake after acute SCI; assay type: in vivo, rat
Experimental: All animals were maintained on a 12:12-h light/dark cycle with lights on at 07:00 h in a temperature-controlled (20±2° C.) vivarium. Spinal cord transection surgery was performed as previously described. In brief, 9-week-old Wistar rats (Charles River) were anesthetized by inhalation of isofluorane (3-5%) and hair was removed with a clipper. Skin over the back was cleaned with betadine and isopropyl alcohol. After making a midline incision the spinal cord at the site of transection (T4) was visualized by laminectomy, and the spinal cord was transected with microscissors. The space between transected ends of the spinal cord was filled with surgical sponge and the wound was closed in two layers with suture. Urine was manually expressed 3 times daily until automaticity develops, then as needed. Baytril was administered for the first 3 to 5 days postoperatively then as needed for sign of cloudy or bloody urine or wound infection. Sham-transected animals received a laminectomy-only surgery.
Injectable methylprednisolone (MP) solution (62.5 mg/ml) was obtained from Pfizer. MP was conjugated to the chain terminus of methoxy HPMA, an amphiphilic macromolecular prodrug to produce a polymeric methylprednisolone conjugate. […]

For `C[C@H]1C[C@@H]2[C@H]([C@@H](O)C[C@@]3(C)[C@H]2CC[C@]3(O)C(=O)CO)[C@@]2(C)C=CC(=O)C=C12` [MP, methylprednisolone], the “osteoclastic markers TRAP, CTR and Integrin β3 mRNA vs. sham” value [1] was “increase”, the “levels of SOST mRNA vs. Sham” value (SOST) was −22% and the “FOXO1 protein level in gastrocnemius and soleus muscle vs. SCI-veh” value (FOXO1) was “drastically elevated”. The “G6PC expression vs. sham” value (G6PC) was roughly 8 fold, the “change of GLUT4 expression” value (GLUT4) was −56.5% and the “change of SCI-induced accumulation of nitrotyrosine vs. SCI-veh” value (nitrotyrosine) was −40.0%. The “muscle mass gastrocnemius vs. sham” value ([2]; NS) was −12.5%, the “muscle mass biceps vs. sham” value ([2]; p<0.01) was −14.6% and the “muscle mass EDL vs. sham” value ([2]; p<0.05) was −10.4%. For the same compound, the “mRNA level of TNF-α in gastrocnemius and soleus muscle” value (TNF-α [3]) was “significantly increased”, the “decrease in the OPG/RANKL ratio vs. sham” value (RANKL) was “about three-fold” and the “mRNA level of RANKL vs. sham” value (RANKL) was roughly 7 fold. The “fasting glucose level vs. sham” value [4] was “+10.4%”, the “change of SCI-induced TNF-α expression vs. SCI-veh” value (TNF-α [5]) was −32.5% and the “cortical architecture of the femur midshaft” value ([6]; cortical bone volume, number, thickness, separation) was “No significant change”. For the same compound, the “trabecular bone architecture of the distal femur” value ([6]; μCT structural parameters) was “more significant change in each of those structural parameters than SCI-veh group”, the “change of fiber cross-sectional area” value (gastrocnemius muscle) was −40% and the “cross-sectional area and fiber size distribution” value (gastrocnemius muscle; in words) was “significant left shift of fiber size”. The pharmacokinetic half-life [7] was 2.5 to 3 h, the “MAFbx and MuRF1 mRNA level in gastrocnemius muscle” value [8] was “more significant induction” and the “MAFbx mRNA level in soleus vs. SCI-veh group” value [8] was “more significant increases”. The “decrease in BMD at the distal femur vs. sham” value [9] was 11%, the “decrease of BMD at the proximal tibia vs. sham” value [9] was 11.2% and the body weight loss ([10]; Day 1 and Day 2 post injury, vs control animals) was “significantly higher weight loss”. The food intake ([10]; vs all other experiment groups) was “Pronounced decrease of food intake”.
